Measured values as given in the NIST ThermoML archive (doi:10.1016/j.tca.2012.11.008).
Numbers after ± are expanded uncertainties.

Experiment: mn = molality of the nth substance listed, in mol/kg
Conditions: 101 kPa, Liquid; for speed of sound: Sing-around technique in a fixed-path interferometer; for mass density: Vibrating tube method

O [water] + NC(CO)(CO)CO.O=C(c1ccccc1)c1ccc2n1CCC2C(=O)O
Conditions	speed of sound [m/s]
313.15 K, m2 = 0	1529.1 ± 1.3

NC(CO)(CO)CO.O=C(c1ccccc1)c1ccc2n1CCC2C(=O)O (stereo unspecified) [ketorolac tromethamine] + O
Conditions	mass density, 293.15 K [kg/m3]	mass density, 298.15 K [kg/m3]	mass density, 303.15 K [kg/m3]	mass density, 308.15 K [kg/m3]	mass density, 313.15 K [kg/m3]	speed of sound, 293.15 K [m/s]	speed of sound, 298.15 K [m/s]	speed of sound, 303.15 K [m/s]	speed of sound, 308.15 K [m/s]	speed of sound, 313.15 K [m/s]
m1 = 0.01	999.38 ± 0.22	998.2 ± 0.22	996.79 ± 0.22	995.17 ± 0.21	993.34 ± 0.21	1485.6 ± 1.3	1499.7 ± 1.3	1512 ± 1.3	1522.5 ± 1.3	1531.5 ± 1.3
m1 = 0.02	1000.35 ± 0.21	999.17 ± 0.21	997.75 ± 0.2	996.11 ± 0.2	994.28 ± 0.2	1486.8 ± 1.3	1500.7 ± 1.3	1512.9 ± 1.3	1523.3 ± 1.3	1532.2 ± 1.2
m1 = 0.03	1001.41 ± 0.23	1000.21 ± 0.21	998.78 ± 0.21	997.13 ± 0.21	995.29 ± 0.2	1488.7 ± 1.3	1502.5 ± 1.3	1514.6 ± 1.3	1524.9 ± 1.3	1533.7 ± 1.3
m1 = 0.04	1002.57 ± 0.19	1001.23 ± 0.19	999.83 ± 0.19	998.13 ± 0.19	996.22 ± 0.19	1491 ± 1.3	1504.7 ± 1.3	1516.7 ± 1.3	1527 ± 1.3	1535.7 ± 1.3
m1 = 0.05	1003.3 ± 0.21	1002.07 ± 0.22	1000.62 ± 0.22	998.96 ± 0.22	997.1 ± 0.21	1492.1 ± 1.3	1505.7 ± 1.3	1517.6 ± 1.3	1527.7 ± 1.3	1536.3 ± 1.3
m1 = 0.075	1006.13 ± 0.22	1004.88 ± 0.22	1003.4 ± 0.22	1001.71 ± 0.22	999.82 ± 0.21	1497.4 ± 1.3	1510.7 ± 1.3	1522.3 ± 1.3	1532.2 ± 1.3	1540.5 ± 1.3
m1 = 0.1	1008.75 ± 0.22	1007.46 ± 0.21	1005.95 ± 0.21	1004.24 ± 0.21	1002.31 ± 0.2	1501.5 ± 1.3	1514.5 ± 1.3	1525.8 ± 1.3	1535.5 ± 1.3	1543.6 ± 1.3
m1 = 0.125	1011.43 ± 0.22	1010.1 ± 0.21	1008.54 ± 0.21	1006.74 ± 0.21	1004.79 ± 0.21	1506 ± 1.3	1518.8 ± 1.3	1530 ± 1.3	1539.4 ± 1.3	1547.3 ± 1.3
m1 = 0.15	1014.02 ± 0.21	1012.67 ± 0.21	1011.11 ± 0.21	1009.34 ± 0.21	1007.39 ± 0.21	1509.9 ± 1.3	1522.5 ± 1.3	1533.4 ± 1.3	1542.7 ± 1.3	1550.4 ± 1.3
m1 = 0.175	1016.56 ± 0.21	1015.19 ± 0.21	1013.63 ± 0.21	1011.84 ± 0.21	1009.86 ± 0.2	1514.6 ± 1.3	1527.1 ± 1.3	1538 ± 1.3	1547.2 ± 1.3	1554.6 ± 1.3
m1 = 0.2	1019.22 ± 0.22	1017.8 ± 0.22	1016.15 ± 0.22	1014.32 ± 0.22	1012.32 ± 0.21	1518.9 ± 1.3	1531.4 ± 1.3	1542.3 ± 1.3	1550.8 ± 1.3	1558.1 ± 1.3
m1 = 0.25	1024.63 ± 0.22	1023.16 ± 0.22	1021.49 ± 0.22	1019.63 ± 0.22	1017.59 ± 0.22	1525.6 ± 1.3	1537.4 ± 1.3	1547.6 ± 1.3	1556 ± 1.3	1563 ± 1.3
